Results reported in US5747535A, “Selective thrombin inhibitors” (priority 1995, dated 1998).
Read-outs that look alike come from different tables or passages of the source.

Experiments:
[1] = molecular target: T1, trypsin (Bos taurus, UniProt P00760); assay: biochemical; type: biochemical; conditions: 20 μM substrate; read-out: Inhibitory activity for trypsin, Ki
T1 sequence (P00760 24-246): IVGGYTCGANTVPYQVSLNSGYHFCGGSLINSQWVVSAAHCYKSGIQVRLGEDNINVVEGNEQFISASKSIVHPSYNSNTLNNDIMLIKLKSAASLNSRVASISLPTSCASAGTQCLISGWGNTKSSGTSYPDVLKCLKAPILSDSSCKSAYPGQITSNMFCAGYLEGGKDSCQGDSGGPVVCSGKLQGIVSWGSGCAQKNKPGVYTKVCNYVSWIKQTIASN
Method: To identify the selectivity for thrombin over trypsin of the compound of the present invention, the inhibitory activity for trypsin of the compound of formula (I) is measured as Ki value according to the same method as the above method for determination of thrombin inhibitory activity, and then the ratio of the activity for trypsin to the activity for thrombin is calculated. In this case, the procedure for determination of inhibitory activity for trypsin is substantially identical to that for thrombin, except that N-benzoyl-Val-Gly-Arg para-nitroanilide hydrochloride is used as the substrate.
As the substrate 20μM solution of N-benzoyl-Val-Gly-Arg-p-nitroanilide hydrochloride was used, and the inhibitor was used in various concnetrations within the range of […]. In addition, trypsin was dissolved in 0.1N HCl, adjusted to the concentration of 45 μg/ml with the said tris buffered solution just before the experiment, and then used in an amount of 40μl. As in the experiment for thrombin, a total volume of the reaction solution was 1.5 ml and the remaining procedure was conducted in the same manner.

[2] = Test 2: Pharmacokinetic test in dogs; type: in vivo, dog; conditions: for concentration at 2 min / concentration at 5 min / concentration at 10 min / concentration at 20 min / concentration at 0.5 h / concentration at 0.75 h / concentration at 1 h / concentration at 1.5 h / concentration at 2 h / concentration at 4 h / concentration at 5 h / concentration at 6 h / concentration at 3 h: 10 mg/kg; for concentration at 0.5 h: 30 min; for concentration at 0.75 h: 45 min; for concentration at 1 h: 60 min; for concentration at 1.5 h: 90 min; for concentration at 2 h: 120 min; for concentration at 4 h: 240 min; for concentration at 5 h: 300 min; for concentration at 6 h: 360 min; for concentration at 3 h: 180 min; for bioavailability: oral route
Method: Male rats and dogs were fasted for 24 hours and used as the experimental animals. […] Bloods were collected from the animals at given time intervals and then immediately mixed with methanol and zinc sulfate. Finally, the upper layer of the mixture was quantitatively analyzed at ultraviolet wavelength of 231 nm to measure the drug concentration in blood by HPLC.

[3] = molecular target: bovine thrombin (Bos taurus, UniProt P00735); assay: biochemical;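 further: bovine thrombin cleaving the chromogenic substrate Chromozym TH, with para-nitroaniline release tracked as absorbance change over time to give initial rates, in Tris buffer at pH 7.8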
Excerpt: The thrombin inhibitory effect of the compound of formula (I) according to the present invention can be identified by determination of a dissociation constant Ki represented by the following equation according to the known method described in literature [see, Methods in enzymology V. 80,p341-361;Biochemistry 27,p2144-2151 (1988)].
The dissociation constant Ki denotes the degree of dissociation of the enzyme-thrombin inhibitor complex. […] Such dissociation constant can be determined by reacting thrombin with a certain substrate which develops a color when it is hydrolyzed by the action of thrombin, and then measuring the degree of color development as a function of time by means of spectrophotometry.
Chromozym TH is hydrolyzed by thrombin to produce yellow para-nitroaniline. Accordingly, the amount of yellow para-nitroaniline thus produced can be measured as the change of absorbance in the course of time to determine the thrombin inhibitory activity of the compound according to the present invention. That is, the enzyme activity can be determined from the rate of change in absorbance and then can be directly connected with the ability of the thrombin inhibitor to inhibit the enzyme activity (see, Methods in Enzymology, V. 80,p341-361,Biochemistry 27, p2144-2151, 1988).
The ability of the compound according to the present invention to inhibit the thrombin activity was determined as described in the following.
1160 μl of 0.1M tris buffered solution (pH 7.8) containing 150 mM NaCl and 0.1% PEG 8000 (polyethylene glycol, molecular weight about 8,000) was added to a 1.5 ml cuvette. Chromozym TH was dissolved in dimethylsulfoxide(DMSO) in the concentration of 10mM and the resulting solution was diluted with the said tris buffered solution to the concentration of 0.1 mM, which was then used as the substrate solution. 225 μl of 0.1 mM substrate solution thus prepared was added to the cuvette. The inhibitor solution was prepared by dissolving the thrombin inhibitor compound according to the present invention in dimethylsulfoxide in the concentration of 10 mg/ml and then diluting the resulting solution with the said tris buffered solution to the concentration of 0.1 mg/ml, 0.01 mg/ml, 0.001 mg/ml and 0.0001 mg/ml. The resulting inhibitor solution was taken in an amount corresponding to 0 to 10 μg as the inhibitor and then diluted with tris buffered solution to make the total volume of 100 μl which was added to the cuvette.
15 μl of bovine thrombin solution dissolved in above tris buffered solution in the concentration of 0.1 mg/ml was added to the cuvette to initiate the enzyme hydrolysis reaction. The amount of para-nitroaniline produced for 2 minutes from the moment the enzyme is added was monitored by measuring the absorbance at 381 nm. The continuous spectrum of absorbance to reaction time was depicted. The same experiments were conducted for various concentration of the inhibitor to obtain the continuous spectrum.
In each spectrum, the initial velocity Vi was obtained from the slope within initial 30 seconds of the reaction time and then a graph for the reciprocal value of initial velocity(1/Vi) to the inhibitor concentration was depicted. From the graph, the primary equation satisfying the points depicted thereon was obtained and then the value Ki was calculated from the x intercept of the primary equation using the enzyme reaction equation.
The velocity constant Ks was obtained using the same solution in the same concentration as in determination of the value Ki but using the following experimental procedure.

[4] = dog, blood, iv, Dog-1, i.v. 10 mg/kg, read-out: Blood concentration
[5] = dog, blood, iv, Dog-2, i.v. 10 mg/kg, read-out: Blood concentration
[6] = dog, blood, iv, dogs, i.v. 10 mg/kg, read-out: Blood concentration, Average(+error)
[7] = dog, blood, po, Dog-1, oral 10 mg/kg, read-out: Blood concentration
[8] = dog, blood, po, Dog-2, oral 10 mg/kg, read-out: Blood concentration
[9] = dog, blood, po, dogs, oral 10 mg/kg, read-out: Blood concentration, Average(+error)

Which Ki [1] does the source give for `CN(C(=O)[C@H](Cc1ccc(C(=N)NN)cc1)NS(=O)(=O)c1ccc2ccccc2c1)C1CCCC1` [Example 1, (S)-N-cyclopentyl-N-methyl-3-(4-amidrazonophenyl)-2-(2-naphthylsulfonylamino)propionamide] here?
The Ki was 3.19 µM.

And the concentration at 2 min [2, 4]?
Its concentration at 2 min is 29100 ng/mL.

What about the concentration at 5 min [2, 4] of the same molecule?
Its concentration at 5 min is 9080 ng/mL.

And the concentration at 10 min [2, 4]?
Its concentration at 10 min is 5940 ng/mL.

And the concentration at 20 min [2, 4]?
Its concentration at 20 min is 3610 ng/mL.

What about the concentration at 0.5 h [2, 4] of the same molecule?
Its concentration at 0.5 h is 2430 ng/mL.

And the concentration at 0.75 h [2, 4]?
The concentration at 0.75 h was 1940 ng/mL.

And the concentration at 1 h [2, 4]?
Its concentration at 1 h is 1470 ng/mL.

And the concentration at 1.5 h [2, 4]?
The concentration at 1.5 h was 1270 ng/mL.

And the concentration at 2 h [2, 4]?
Its concentration at 2 h is 1090 ng/mL.

What about the concentration at 4 h [2, 4] of the same molecule?
The concentration at 4 h was 544 ng/mL.

What about the concentration at 5 h [2, 4] of the same molecule?
The concentration at 5 h was 315 ng/mL.

And the concentration at 6 h [2, 4]?
Its concentration at 6 h is 317 ng/mL.

And the concentration at 2 min [2, 5]?
The concentration at 2 min was 36600 ng/mL.

What about the concentration at 5 min [2, 5] of the same molecule?
Its concentration at 5 min is 5230 ng/mL.

And the concentration at 10 min [2, 5]?
Its concentration at 10 min is 3280 ng/mL.

And the concentration at 20 min [2, 5]?
The concentration at 20 min was 1800 ng/mL.

What about the concentration at 0.5 h [2, 5] of the same molecule?
Its concentration at 0.5 h is 1340 ng/mL.

What about the concentration at 0.75 h [2, 5] of the same molecule?
Its concentration at 0.75 h is 859 ng/mL.

What about the concentration at 1 h [2, 5] of the same molecule?
Its concentration at 1 h is 690 ng/mL.

And the concentration at 1.5 h [2, 5]?
The concentration at 1.5 h was 501 ng/mL.

And the concentration at 2 h [2, 5]?
Its concentration at 2 h is 377 ng/mL.

And the concentration at 4 h [2, 5]?
The concentration at 4 h was 129 ng/mL.

And the concentration at 5 h [2, 5]?
The concentration at 5 h was 107 ng/mL.

And the concentration at 6 h [2, 5]?
Its concentration at 6 h is 92 ng/mL.

What about the concentration at 2 min [2, 6] of the same molecule?
Its concentration at 2 min is 32900 ng/mL.

And the concentration at 5 min [2, 6]?
The concentration at 5 min was 7160 ng/mL.

And the concentration at 10 min [2, 6]?
Its concentration at 10 min is 4610 ng/mL.

And the concentration at 20 min [2, 6]?
Its concentration at 20 min is 2710 ng/mL.

And the concentration at 0.5 h [2, 6]?
Its concentration at 0.5 h is 1880 ng/mL.

What about the concentration at 0.75 h [2, 6] of the same molecule?
The concentration at 0.75 h was 1400 ng/mL.

And the concentration at 1 h [2, 6]?
The concentration at 1 h was 1080 ng/mL.

And the concentration at 1.5 h [2, 6]?
The concentration at 1.5 h was 885 ng/mL.

And the concentration at 2 h [2, 6]?
The concentration at 2 h was 733 ng/mL.

And the concentration at 4 h [2, 6]?
Its concentration at 4 h is 337 ng/mL.

What about the concentration at 5 h [2, 6] of the same molecule?
Its concentration at 5 h is 211 ng/mL.

What about the concentration at 6 h [2, 6] of the same molecule?
The concentration at 6 h was 204 ng/mL.

What about the concentration at 10 min [2, 7] of the same molecule?
Its concentration at 10 min is 1390 ng/mL.

What about the concentration at 20 min [2, 7] of the same molecule?
Its concentration at 20 min is 2080 ng/mL.

And the concentration at 0.5 h [2, 7]?
The concentration at 0.5 h was 1940 ng/mL.

What about the concentration at 0.75 h [2, 7] of the same molecule?
The concentration at 0.75 h was 1890 ng/mL.

What about the concentration at 1 h [2, 7] of the same molecule?
Its concentration at 1 h is 2220 ng/mL.

What about the concentration at 1.5 h [2, 7] of the same molecule?
The concentration at 1.5 h was 1270 ng/mL.

What about the concentration at 2 h [2, 7] of the same molecule?
Its concentration at 2 h is 774 ng/mL.

And the concentration at 3 h [2, 7]?
The concentration at 3 h was 663 ng/mL.

What about the concentration at 4 h [2, 7] of the same molecule?
Its concentration at 4 h is 812 ng/mL.

What about the concentration at 5 h [2, 7] of the same molecule?
The concentration at 5 h was 51 ng/mL.

What about the concentration at 6 h [2, 7] of the same molecule?
The concentration at 6 h was 118 ng/mL.

What about the concentration at 10 min [2, 8] of the same molecule?
The concentration at 10 min was 15 ng/mL.

And the concentration at 20 min [2, 8]?
The concentration at 20 min was 17 ng/mL.

And the concentration at 0.5 h [2, 8]?
Its concentration at 0.5 h is 105 ng/mL.

What about the concentration at 0.75 h [2, 8] of the same molecule?
Its concentration at 0.75 h is 558 ng/mL.

And the concentration at 1 h [2, 8]?
Its concentration at 1 h is 1310 ng/mL.

And the concentration at 1.5 h [2, 8]?
Its concentration at 1.5 h is 935 ng/mL.

What about the concentration at 2 h [2, 8] of the same molecule?
The concentration at 2 h was 730 ng/mL.

And the concentration at 3 h [2, 8]?
Its concentration at 3 h is 616 ng/mL.

And the concentration at 4 h [2, 8]?
The concentration at 4 h was 318 ng/mL.

What about the concentration at 5 h [2, 8] of the same molecule?
The concentration at 5 h was 222 ng/mL.

What about the concentration at 6 h [2, 8] of the same molecule?
The concentration at 6 h was 153 ng/mL.

And the concentration at 10 min [2, 9]?
The concentration at 10 min was 702 ng/mL.

What about the concentration at 20 min [2, 9] of the same molecule?
The concentration at 20 min was 1050 ng/mL.

And the concentration at 0.5 h [2, 9]?
Its concentration at 0.5 h is 1020 ng/mL.

And the concentration at 0.75 h [2, 9]?
Its concentration at 0.75 h is 1220 ng/mL.

What about the concentration at 1 h [2, 9] of the same molecule?
Its concentration at 1 h is 1760 ng/mL.

What about the concentration at 1.5 h [2, 9] of the same molecule?
The concentration at 1.5 h was 1100 ng/mL.

What about the concentration at 2 h [2, 9] of the same molecule?
Its concentration at 2 h is 752 ng/mL.

And the concentration at 3 h [2, 9]?
The concentration at 3 h was 640 ng/mL.

And the concentration at 4 h [2, 9]?
Its concentration at 4 h is 565 ng/mL.

And the concentration at 5 h [2, 9]?
The concentration at 5 h was 136 ng/mL.

And the concentration at 6 h [2, 9]?
The concentration at 6 h was 135 ng/mL.

What about the bioavailability ([2]; dog, blood, dogs, read-out: Bioavailability) of the same molecule?
Its bioavailability is 61%.

What about the half-life ([2]; dog, blood, dogs, read-out: Elimination Half-life, Average + (error)) of the same molecule?
The half-life was 1.63 h.

What about the “elimination half-life in dogs compared with argatroban in human being” value ([2]; dogs vs argatroban (40 minutes) in human being) of the same molecule?
Its value is “twice longer or more than that of commercially available argatroban”.

And the “elimination half-life in dogs compared with rats” value ([2]; dogs vs rats, intravenous)?
Its value is “twice longer or more than that in rats”.

And the “distribution and disappearance after intravenous injection” value ([2]; dogs, intravenous)?
The value was “rapidly distributed and then slowly disappeared”.

And the bioavailability ([2]; dogs)?
The bioavailability was 61 (15) %.

What about the “pharmacokinetic characteristics compared with argatroban” value ([2]; oral absorption and elimination half-life) of the same molecule?
Its value is “better pharmacokinetic characteristics than argatroban”.

And the Ki [3]?
The Ki was 0.0038 µM.
